Assays:
human Gal-3 (hGal-3) = human Gal-3 (hGal-3) (Homo sapiens (Human), UniProt P17931); test: competitive binding assay: biotinylated hGal-3 binding to microplate-adsorbed asialofetuin (ASF); details: Gal-3 inhibition; binding of biotinylated hGal-3 to ASF; mean values; read-out: IC50
Procedure, shortened: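 3 h, 4 °C binding step; cold buffer wash; streptavidin-HRP 80 ng/mL, 1 h, 4 °C; ABTS colorimetric read-out. Compounds diluted serially in DMSO. IC50 reported as mean of repeat runs.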

human Gal-1 (hGal-1) = human Gal-1 (hGal-1) (Homo sapiens (Human), UniProt P09382); test: competitive binding assay: biotinylated hGal-1 binding to microplate-adsorbed asialofetuin (ASF); details: Table 15; read-out: IC50 (Galectin-1 inhibition)
human Gal-1 (hGal-1), sequence (P09382 whole entry): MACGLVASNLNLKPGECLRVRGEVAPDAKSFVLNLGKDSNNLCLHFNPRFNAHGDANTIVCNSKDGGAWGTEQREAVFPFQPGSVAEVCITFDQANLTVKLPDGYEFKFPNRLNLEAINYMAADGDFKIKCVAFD
Procedure: Inhibition data of the epimers R and S of selected Examples are also listed.
Evaluation of Compound Inhibitory Activity (IC50)
The inhibitory activity of compounds is determined in competitive binding assays. This spectrophotometric assay measures the binding of biotinylated human Gal-3 (hGal-3) or human Gal-1 (hGal-1), respectively, to a microplate-adsorbed glycoprotein, asialofetuin (ASF) (Proc Natl Acad Sci USA. 2013 Mar. 26; 110(13):5052-7.).
Briefly, compounds are serially diluted in DMSO (working dilutions). ASF-coated 384 well plates are supplemented with 22.8 μL/well of biotinylated hGal-3 or hGal-1 in assay buffer (i.e. 300-1000 ng/mL biotinylated hGal-3 or hGal-1) to which 1.2 μL of compound working dilutions are added and mixed.
Plates are incubated for 3 hours at 4° C., then washed with cold assay buffer (3×50 uL), incubated for 1 hour with 25 μL/well of a streptavidin-peroxidase solution (diluted in assay buffer to 80 ng/mL) at 4° C., followed by further washing steps with assay buffer (3×50 uL). Finally, 25 μL/well of ABTS substrate is added.
The calculated IC50 values may fluctuate depending on the daily assay performance. Fluctuations of this kind are known to those skilled in the art. IC50 values from several measurements are given as mean values.

human Gal-3 (hGal-3), sequence (P17931 whole entry): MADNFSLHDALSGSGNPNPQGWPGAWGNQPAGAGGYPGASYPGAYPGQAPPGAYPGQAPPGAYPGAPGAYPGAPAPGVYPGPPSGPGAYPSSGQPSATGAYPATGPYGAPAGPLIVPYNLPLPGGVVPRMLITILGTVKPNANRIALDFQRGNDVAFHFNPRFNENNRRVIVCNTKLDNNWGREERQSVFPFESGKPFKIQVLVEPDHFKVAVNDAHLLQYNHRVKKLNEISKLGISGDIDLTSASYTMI

SMILES | IC50 (human Gal-3 (hGal-3)) [nM] | IC50 (human Gal-1 (hGal-1)) [nM]
CC(C)(O)C(S[C@@H]1O[C@H](CO)[C@H](O)[C@H](n2cc(-c3cc(F)c(F)c(F)c3)nn2)[C@H]1O)c1ccccc1-c1ccccc1 (stereo partly drawn) [Example 2.31.110., (2S,3R,4S,5R,6R)-2-((1-([1,1′-Biphenyl]-2-yl)-2-hydroxy-2-methylpropyl)thio)-6-(hydroxymethyl)-4-(4-(3,4,5-trifluorophenyl)-1H-1,2,3-triazol-1-yl)tetrahydro-2H-pyran-3,5-diol] | 180 | 400
CC(C)(O)[C@H](S[C@@H]1O[C@H](CO)[C@H](O)[C@H](n2cc(-c3cc(F)c(F)c(F)c3)nn2)[C@H]1O)c1ccccc1-c1ccccc1 [Example 2.31.110R., (2S,3R,4S,5R,6R)-2-(((R)-1-([1,1′-Biphenyl]-2-yl)-2-hydroxy-2-methylpropyl)thio)-6-(hydroxymethyl)-4-(4-(3,4,5-trifluorophenyl)-1H-1,2,3-triazol-1-yl)tetrahydro-2H-pyran-3,5-diol] | 220 | 280
CC(C)(O)[C@@H](S[C@@H]1O[C@H](CO)[C@H](O)[C@H](n2cc(-c3cc(F)c(F)c(F)c3)nn2)[C@H]1O)c1ccccc1-c1ccccc1 [Example 2.31.110S., (2S,3R,4S,5R,6R)-2-(((S)-1-([1,1′-Biphenyl]-2-yl)-2-hydroxy-2-methylpropyl)thio)-6-(hydroxymethyl)-4-(4-(3,4,5-trifluorophenyl)-1H-1,2,3-triazol-1-yl)tetrahydro-2H-pyran-3,5-diol] | 4900 | 16700
CC(C)(O)[C@H](S[C@@H]1O[C@H](CO)[C@H](O)[C@H](n2cc(-c3cc(F)c(F)c(F)c3)nn2)[C@H]1O)c1ccccc1Cl [Example 2.31.111R., (2S,3R,4S,5R,6R)-2-(((R)-1-(2-Chlorophenyl)-2-hydroxy-2-methylpropyl)thio)-6-(hydroxymethyl)-4-(4-(3,4,5-trifluorophenyl)-1H-1,2,3-triazol-1-yl)tetrahydro-2H-pyran-3,5-diol] | 380 | 3190
CC(C)(O)[C@@H](S[C@@H]1O[C@H](CO)[C@H](O)[C@H](n2cc(-c3cc(F)c(F)c(F)c3)nn2)[C@H]1O)c1ccccc1Cl [Example 2.31.111S., (2S,3R,4S,5R,6R)-2-(((S)-1-(2-Chlorophenyl)-2-hydroxy-2-methylpropyl)thio)-6-(hydroxymethyl)-4-(4-(3,4,5-trifluorophenyl)-1H-1,2,3-triazol-1-yl)tetrahydro-2H-pyran-3,5-diol] | 4300 | 30900
CC(C)(O)C(S[C@@H]1O[C@H](CO)[C@H](O)[C@H](n2cc(-c3cc(F)c(F)c(F)c3)nn2)[C@H]1O)c1ccccc1C(F)(F)F (stereo partly drawn) [Example 2.31.112., (2S,3R,4S,5R,6R)-2-((2-Hydroxy-2-methyl-1-(2-(trifluoromethyl)phenyl)propyl)thio)-6-(hydroxymethyl)-4-(4-(3,4,5-trifluorophenyl)-1H-1,2,3-triazol-1-yl)tetrahydro-2H-pyran-3,5-diol] | 250 | 5230
CC(C)(O)[C@H](S[C@@H]1O[C@H](CO)[C@H](O)[C@H](n2cc(-c3cc(F)c(F)c(F)c3)nn2)[C@H]1O)c1ccccc1C(F)(F)F [Example 2.31.112R., (2S,3R,4S,5R,6R)-2-(((R)-2-Hydroxy-2-methyl-1-(2-(trifluoromethyl)phenyl)propyl)thio)-6-(hydroxymethyl)-4-(4-(3,4,5-trifluorophenyl)-1H-1,2,3-triazol-1-yl)tetrahydro-2H-pyran-3,5-diol] | 290 | 2610
CC(C)(O)[C@@H](S[C@@H]1O[C@H](CO)[C@H](O)[C@H](n2cc(-c3cc(F)c(F)c(F)c3)nn2)[C@H]1O)c1ccccc1C(F)(F)F [Example 2.31.112S., (2S,3R,4S,5R,6R)-2-(((S)-2-Hydroxy-2-methyl-1-(2-(trifluoromethyl)phenyl)propyl)thio)-6-(hydroxymethyl)-4-(4-(3,4,5-trifluorophenyl)-1H-1,2,3-triazol-1-yl)tetrahydro-2H-pyran-3,5-diol] | 7070 | 26400
CC(C)(O)C(S[C@@H]1O[C@H](CO)[C@H](O)[C@H](n2cc(-c3cc(F)c(F)c(F)c3)nn2)[C@H]1O)c1cccc(Cl)c1Cl (stereo partly drawn) [Example 2.31.113., (2S,3R,4S,5R,6R)-2-((1-(2,3-Dichlorophenyl)-2-hydroxy-2-methylpropyl)thio)-6-(hydroxymethyl)-4-(4-(3,4,5-trifluorophenyl)-1H-1,2,3-triazol-1-yl)tetrahydro-2H-pyran-3,5-diol] | 460 | 3750
Cc1c(F)cccc1C(S[C@@H]1O[C@H](CO)[C@H](O)[C@H](n2cc(-c3cc(F)c(F)c(F)c3)nn2)[C@H]1O)C(C)(C)O (stereo partly drawn) [Example 2.31.114., (2S,3R,4S,5R,6R)-2-((1-(3-Fluoro-2-methylphenyl)-2-hydroxy-2-methylpropyl)thio)-6-(hydroxymethyl)-4-(4-(3,4,5-trifluorophenyl)-1H-1,2,3-triazol-1-yl)tetrahydro-2H-pyran-3,5-diol] | 130 | 2270
Cc1c(F)cccc1[C@H](S[C@@H]1O[C@H](CO)[C@H](O)[C@H](n2cc(-c3cc(F)c(F)c(F)c3)nn2)[C@H]1O)C(C)(C)O [Example 2.31.114S., (2S,3R,4S,5R,6R)-2-(((S)-1-(3-Fluoro-2-methylphenyl)-2-hydroxy-2-methylpropyl)thio)-6-(hydroxymethyl)-4-(4-(3,4,5-trifluorophenyl)-1H-1,2,3-triazol-1-yl)tetrahydro-2H-pyran-3,5-diol] | 5400 | 40900
CC(C)(O)C(S[C@@H]1O[C@H](CO)[C@H](O)[C@H](n2cc(-c3cc(F)c(F)c(F)c3)nn2)[C@H]1O)c1cccc2ccccc12 (stereo partly drawn) [Example 2.31.115., (2S,3R,4S,5R,6R)-2-((2-Hydroxy-2-methyl-1-(naphthalen-1-yl)propyl)thio)-6-(hydroxymethyl)-4-(4-(3,4,5-trifluorophenyl)-1H-1,2,3-triazol-1-yl)tetrahydro-2H-pyran-3,5-diol] | 180 | 1390
CC(C)(O)[C@H](S[C@@H]1O[C@H](CO)[C@H](O)[C@H](n2cc(-c3cc(F)c(F)c(F)c3)nn2)[C@H]1O)c1cccc2ccccc12 [Example 2.31.115R., (2S,3R,4S,5R,6R)-2-(((R)-2-Hydroxy-2-methyl-1-(naphthalen-1-yl)propyl)thio)-6-(hydroxymethyl)-4-(4-(3,4,5-trifluorophenyl)-1H-1,2,3-triazol-1-yl)tetrahydro-2H-pyran-3,5-diol] | 170 | 580
CC(C)(O)[C@@H](S[C@@H]1O[C@H](CO)[C@H](O)[C@H](n2cc(-c3cc(F)c(F)c(F)c3)nn2)[C@H]1O)c1cccc2ccccc12 [Example 2.31.115S., (2S,3R,4S,5R,6R)-2-(((S)-2-Hydroxy-2-methyl-1-(naphthalen-1-yl)propyl)thio)-6-(hydroxymethyl)-4-(4-(3,4,5-trifluorophenyl)-1H-1,2,3-triazol-1-yl)tetrahydro-2H-pyran-3,5-diol] | 10300 | 47900
Cc1ncccc1C(S[C@@H]1O[C@H](CO)[C@H](O)[C@H](n2cc(-c3cc(F)c(F)c(F)c3)nn2)[C@H]1O)C(C)(C)O (stereo partly drawn) [Example 2.31.116., (2S,3R,4S,5R,6R)-2-((2-Hydroxy-2-methyl-1-(2-methylpyridin-3-yl)propyl)thio)-6-(hydroxymethyl)-4-(4-(3,4,5-trifluorophenyl)-1H-1,2,3-triazol-1-yl)tetrahydro-2H-pyran-3,5-diol] | 300 | 3780
